Experiments:
Format in all cases: cell-based
[1] = target: T1, human TLR7 (Homo sapiens, UniProt Q9NYK1); experiment: TLR7 inhibition reporter assay (HEK-Blue cells, SEAP reporter, gardiquimod stimulation); conditions: HEK-Blue cells overexpressing human TLR7, SEAP reporter, gardiquimod 7.5 μM
T1 construct: host or cells: HEK-Blue cells (HEK293-derived reporter line)
T1 sequence (Q9NYK1 27-1049): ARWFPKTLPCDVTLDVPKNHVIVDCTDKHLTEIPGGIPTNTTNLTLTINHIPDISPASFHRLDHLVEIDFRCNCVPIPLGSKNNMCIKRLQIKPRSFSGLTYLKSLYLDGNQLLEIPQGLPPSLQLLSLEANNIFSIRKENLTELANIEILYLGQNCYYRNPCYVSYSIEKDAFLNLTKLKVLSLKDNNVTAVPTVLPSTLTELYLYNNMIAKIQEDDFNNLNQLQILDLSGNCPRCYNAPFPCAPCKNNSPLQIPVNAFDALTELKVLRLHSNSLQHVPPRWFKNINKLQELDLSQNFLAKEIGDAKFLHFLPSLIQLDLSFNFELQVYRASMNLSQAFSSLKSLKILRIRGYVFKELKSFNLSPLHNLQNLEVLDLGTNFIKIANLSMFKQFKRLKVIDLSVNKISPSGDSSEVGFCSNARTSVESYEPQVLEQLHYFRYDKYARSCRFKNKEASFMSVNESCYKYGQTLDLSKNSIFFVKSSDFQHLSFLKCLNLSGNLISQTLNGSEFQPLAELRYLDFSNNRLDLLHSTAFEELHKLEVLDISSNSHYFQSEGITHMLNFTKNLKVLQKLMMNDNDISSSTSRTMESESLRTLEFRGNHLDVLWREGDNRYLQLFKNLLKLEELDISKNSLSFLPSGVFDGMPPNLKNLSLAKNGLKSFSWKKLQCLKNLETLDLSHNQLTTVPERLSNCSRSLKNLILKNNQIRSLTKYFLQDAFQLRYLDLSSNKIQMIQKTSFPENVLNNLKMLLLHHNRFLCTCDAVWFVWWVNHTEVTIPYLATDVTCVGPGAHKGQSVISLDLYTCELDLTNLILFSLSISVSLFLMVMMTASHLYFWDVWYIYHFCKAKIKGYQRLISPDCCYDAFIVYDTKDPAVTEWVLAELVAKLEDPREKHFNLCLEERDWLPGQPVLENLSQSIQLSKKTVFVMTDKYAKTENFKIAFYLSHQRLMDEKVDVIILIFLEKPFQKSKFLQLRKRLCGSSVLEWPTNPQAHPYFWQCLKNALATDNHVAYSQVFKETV
In short: (§1)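 Read-out is SEAP activity in HEK-Blue detection medium after 22 h at 37 °C, converted to percent inhibition against agonist-plus-DMSO and reference-inhibitor controls. Cells saw compound (0.05 nM–50 μM, 30 min, room temperature) before gardiquimod 7.5 μM, R848 15.9 μM or ODN2006 5 nM for TLR7, TLR8 and TLR9, respectively.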

[2] = target: T2, human TLR8 (Homo sapiens, UniProt Q9NR97); experiment: TLR8 inhibition reporter assay (HEK-Blue cells, SEAP reporter, R848 stimulation); conditions: HEK-Blue cells overexpressing human TLR8, SEAP reporter, R848 15.9 μM
T2 construct: host or cells: HEK-Blue cells (HEK293-derived reporter line)
T2 sequence (Q9NR97 27-1041): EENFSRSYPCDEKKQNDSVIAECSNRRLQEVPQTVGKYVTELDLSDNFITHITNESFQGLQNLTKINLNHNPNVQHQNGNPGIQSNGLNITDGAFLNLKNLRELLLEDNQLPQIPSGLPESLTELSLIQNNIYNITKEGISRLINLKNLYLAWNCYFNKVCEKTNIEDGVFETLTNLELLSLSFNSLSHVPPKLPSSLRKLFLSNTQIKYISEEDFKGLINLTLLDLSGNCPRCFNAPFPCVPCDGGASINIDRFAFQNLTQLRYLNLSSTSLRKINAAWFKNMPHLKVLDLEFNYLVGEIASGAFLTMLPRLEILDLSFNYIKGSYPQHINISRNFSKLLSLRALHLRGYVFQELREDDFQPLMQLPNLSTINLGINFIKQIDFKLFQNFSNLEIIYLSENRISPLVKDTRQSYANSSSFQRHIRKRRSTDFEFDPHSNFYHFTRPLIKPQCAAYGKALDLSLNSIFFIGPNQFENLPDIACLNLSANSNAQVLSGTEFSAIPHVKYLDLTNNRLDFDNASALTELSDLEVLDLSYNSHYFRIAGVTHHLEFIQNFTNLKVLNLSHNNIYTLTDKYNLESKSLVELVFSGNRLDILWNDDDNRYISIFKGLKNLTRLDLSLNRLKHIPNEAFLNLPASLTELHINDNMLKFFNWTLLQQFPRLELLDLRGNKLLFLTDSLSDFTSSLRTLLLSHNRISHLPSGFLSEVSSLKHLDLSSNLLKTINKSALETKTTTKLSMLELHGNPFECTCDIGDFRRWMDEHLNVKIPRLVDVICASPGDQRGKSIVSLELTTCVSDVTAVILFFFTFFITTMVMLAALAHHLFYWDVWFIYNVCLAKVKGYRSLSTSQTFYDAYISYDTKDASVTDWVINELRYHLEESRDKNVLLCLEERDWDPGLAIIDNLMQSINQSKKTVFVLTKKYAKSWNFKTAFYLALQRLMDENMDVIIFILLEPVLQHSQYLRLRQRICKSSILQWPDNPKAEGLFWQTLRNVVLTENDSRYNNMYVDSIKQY
In short: as §1

[3] = target: T3, human TLR9 (Homo sapiens, UniProt Q9NR96); experiment: TLR9 inhibition reporter assay (HEK-Blue cells, SEAP reporter, ODN2006 stimulation); conditions: HEK-Blue cells overexpressing human TLR9, SEAP reporter, ODN2006 5 nM
T3 construct: host or cells: HEK-Blue cells (HEK293-derived reporter line)
T3 sequence (Q9NR96 26-1032): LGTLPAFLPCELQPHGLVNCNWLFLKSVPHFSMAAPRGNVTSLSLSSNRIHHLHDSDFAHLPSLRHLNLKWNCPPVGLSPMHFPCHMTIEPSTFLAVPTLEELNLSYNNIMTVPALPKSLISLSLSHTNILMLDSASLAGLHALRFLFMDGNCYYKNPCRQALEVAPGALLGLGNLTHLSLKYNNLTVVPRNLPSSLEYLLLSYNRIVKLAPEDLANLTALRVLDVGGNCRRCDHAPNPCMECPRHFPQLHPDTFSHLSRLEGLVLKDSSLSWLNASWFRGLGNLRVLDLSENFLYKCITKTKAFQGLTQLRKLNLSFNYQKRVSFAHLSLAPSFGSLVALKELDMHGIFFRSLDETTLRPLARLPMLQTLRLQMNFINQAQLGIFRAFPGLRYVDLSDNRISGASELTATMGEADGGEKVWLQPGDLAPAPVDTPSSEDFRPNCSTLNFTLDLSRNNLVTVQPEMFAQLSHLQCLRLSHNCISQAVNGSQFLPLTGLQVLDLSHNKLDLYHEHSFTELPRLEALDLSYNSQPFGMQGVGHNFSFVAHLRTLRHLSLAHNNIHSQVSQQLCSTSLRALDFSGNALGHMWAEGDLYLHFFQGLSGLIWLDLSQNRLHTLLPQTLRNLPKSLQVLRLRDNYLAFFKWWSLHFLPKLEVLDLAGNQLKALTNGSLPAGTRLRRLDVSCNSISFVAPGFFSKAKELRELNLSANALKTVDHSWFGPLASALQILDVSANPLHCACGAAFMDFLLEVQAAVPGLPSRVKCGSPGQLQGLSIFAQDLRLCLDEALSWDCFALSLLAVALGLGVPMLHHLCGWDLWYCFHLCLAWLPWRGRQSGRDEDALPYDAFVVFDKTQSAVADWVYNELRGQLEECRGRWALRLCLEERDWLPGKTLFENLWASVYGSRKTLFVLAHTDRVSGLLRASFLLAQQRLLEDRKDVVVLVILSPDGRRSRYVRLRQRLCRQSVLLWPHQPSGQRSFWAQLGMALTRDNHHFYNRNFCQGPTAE
In short: as §1

IC50 [1] | IC50 [2] | IC50 [3] | Compound
100 to 1000 nM | < 100 nM | 1000 to 50000 nM | CCc1c(-c2ccnc3[nH]ncc23)[nH]c2ccc(C3CCNCC3F)cc12 (stereo not drawn) [Example 173, 4-(3-ethyl-5-(3-fluoropiperidin-4-yl)-1H-indol-2-yl)-1H-pyrazolo[3,4-b]pyridine]
1000 to 50000 nM | 1000 to 50000 nM | 100 to 1000 nM | Cc1c(-c2ccnc3[nH]cc(-c4ccccc4)c23)[nH]c2ccc(C3CCNCC3)cc12 [Example 223, 4-(3-methyl-5-(piperidin-4-yl)-1H-indol-2-yl)-3-phenyl-1H-pyrrolo[2,3-b]pyridine]
< 100 nM | < 100 nM | 100 to 1000 nM | CCc1c(-c2ccnc3[nH]ncc23)[nH]c2ccc(C3CCNCC3)cc12 [Example 229, 4-(3-ethyl-5-(piperidin-4-yl)-1H-indol-2-yl)-1H-pyrazolo[3,4-b]pyridine]
< 100 nM | < 100 nM | 1000 to 50000 nM | Cc1cc2nnnn2cc1-c1[nH]c2ccc(C3CCN(CCS(C)(=O)=O)CC3)cc2c1C(C)C [Example 790, 6-(3-isopropyl-5-(1-(2-(methylsulfonyl)ethyl)piperidin-4-yl)-1H-indol-2-yl)-7-methyltetrazolo[1,5-a]pyridine]
< 100 nM | < 100 nM | 1000 to 50000 nM | CC(C)c1c(-c2ccnc3[nH]ncc23)[nH]c2ccc(C3CCN(Cc4cccnc4)CC3)cc12 [Example 907, 4-(3-isopropyl-5-(1-(pyridin-3-ylmethyl)piperidin-4-yl)-1H-indol-2-yl)-1H-pyrazolo[3,4-b]pyridine]
< 100 nM | 100 to 1000 nM | 1000 to 50000 nM | Cc1cn2cc(-c3[nH]c4ccc(C5CCN(Cc6cnn(C)c6)CC5)cc4c3C(C)C)cc(C(F)(F)F)c2n1 [Example 934, 6-(3-isopropyl-5-(1-((1-methyl-1H-pyrazol-4-yl)methyl)piperidin-4-yl)-1H-indol-2-yl)-2-methyl-8-(trifluoromethyl)imidazo[1,2-a]pyridine]
< 100 nM | 100 to 1000 nM | 1000 to 50000 nM | CC(C)NC(=O)CN1CCC(c2ccc3[nH]c(-c4ccc5nccn5c4)c(C(C)C)c3c2)CC1 [Example 402, 2-(4-(2-(imidazo[1,2-a]pyridin-6-yl)-3-isopropyl-1H-indol-5-yl)piperidin-1-yl)-N-isopropylacetamide]
< 100 nM | < 100 nM | 1000 to 50000 nM | CC(C)c1c(-c2ccnc3[nH]ncc23)[nH]c2ccc(C3CCN(C(=O)CN(C)C(C)C)CC3)cc12 [Example 585, 2-(isopropyl(methyl)amino)-1-(4-(3-isopropyl-2-(1H-pyrazolo[3,4-b]pyridin-4-yl)-1H-indol-5-yl)piperidin-1-yl)ethan-1-one]
< 100 nM | < 100 nM | 100 to 1000 nM | CC(C)c1c(-c2ccc3nccn3c2)[nH]c2ccc(C3CCN(CC(=O)N(C)C)CC3)cc12 [Example 444, 2-(4-(2-(imidazo[1,2-a]pyridin-6-yl)-3-isopropyl-1H-indol-5-yl)piperidin-1-yl)-N,N-dimethylacetamide]
< 100 nM | < 100 nM | 1000 to 50000 nM | CC(C)c1c(-c2nc3ccnn3cc2F)[nH]c2ccc(C3CCNCC3)cc12 [Example 147, 6-fluoro-5-(3-isopropyl-5-(piperidin-4-yl)-1H-indol-2-yl)pyrazolo[1,5-a]pyrimidine]
< 100 nM | < 100 nM | 100 to 1000 nM | Cc1cn2cc(-c3[nH]c4ccc(C5CCNCC5)cc4c3C(C)C)cc(C)c2n1 [Example 120, 6-(3-isopropyl-5-(piperidin-4-yl)-1H-indol-2-yl)-2,8-dimethylimidazo[1,2-a]pyridine]
100 to 1000 nM | 1000 to 50000 nM | 1000 to 50000 nM | Cc1nc2cc(-c3[nH]c4ccc(C5CCN(C(=O)CN(C)C)CC5)cc4c3C(C)C)cc(C)c2o1 [Example 491, 2-(dimethylamino)-1-(4-(2-(2,7-dimethylbenzo[d]oxazol-5-yl)-3-isopropyl-1H-indol-5-yl)piperidin-1-yl)ethan-1-one]
< 100 nM | < 100 nM | 1000 to 50000 nM | Cc1cnc2[nH]ncc2c1-c1[nH]c2ccc(C3CCNCC3)cc2c1C(C)C [Example 46, 4-(3-isopropyl-5-(piperidin-4-yl)-1H-indol-2-yl)-5-methyl-1H-pyrazolo[3,4-b]pyridine]
100 to 1000 nM | 1000 to 50000 nM | 1000 to 50000 nM | Cc1nc2cc(-c3[nH]c4ccc(C5CCN(C6COC6)CC5)cc4c3C(C)C)cc(C)c2o1 [Example 709, 5-(3-isopropyl-5-(1-(oxetan-3-yl)piperidin-4-yl)-1H-indol-2-yl)-2,7-dimethylbenzo[d]oxazole]
100 to 1000 nM | 100 to 1000 nM | 100 to 1000 nM | CCc1c(-c2ccc3[nH]c(=O)oc3c2)[nH]c2ccc(C3CCNCC3)cc12 [Example 167, 6-(3-ethyl-5-(piperidin-4-yl)-1H-indol-2-yl)benzo[d]oxazol-2(3H)-one]

Source: patent US11739098B2 (BRISTOL-MYERS SQUIBB COMPANY, priority 2017, dated 2023)
